Assay results as given in patent US20240033269A1, “PPARAXANTHINE-BASED COMPOSITIONS FOR INHIBITING INFLAMMATION, IMPROVING JOINT HEALTH, AND ENHANCING IMMUNE FUNCTION” (PX ING, LLC, priority 2022, published 2024).

Experiments:
Assay type in all cases: in vivo, Swiss Albino mice
IL-2 = assay: Serum IL-2 by ELISA after 28 days oral treatment with treadmill exercise training
Method: (§1) Sixteen 8-week-old male Swiss Albino mice were housed in an animal room at a constant temperature (22±3° C.) and humidity (30-70%) under a 12:12 h light-dark cycle with standard laboratory diet (Purina 5L79, Rat and Mouse 18% protein; PMI Nutrition International, Brentwood, MO, USA). Distilled water was provided ad libitum. All animal experiments were reviewed and approved by the Institutional Animal Ethical Committee (IAEC) of Radiant Research Services Pvt. Ltd. (Bangalore, India). All research was conducted in accordance with the guidelines of the committee for the purpose of control and supervision of experiments on animals.
(§2) After one week of acclimation, the animals were randomly divided by body weight into two groups (n=8 per group in each test) for oral treatment once a day, at approximately the same time each day (±1 h), for 28 consecutive days: (1) vehicle control; (2) paraxanthine. The dose administered to the mice was calculated using US Food and Drug Administration for human equivalence doses (HED), assuming a human weight of 60 kg. The following HED were used in this study: 100 mg paraxanthine, (ENFINITY™, Ingenious Ingredients, L.P Lewisville, TX, USA; mouse dose: 20.5 mg/kg bw/day).
(§3) During the treatment period, exercise training was completed using a motorized treadmill (Exer 3/6, Columbus Instruments international, Columbus, OH, USA) at a moderate intensity of 20 cm/sec as maximal running speed, an incline of 10 degrees and a shock intensity of 0.2 mA, for 10 min. The speed of the treadmill was manually adjusted by increasing the belt speed by 5 cm/sec every 2 min throughout the total duration of 10 min. All animals were adapted to this procedure daily 60 min after dosing for 5 days in a week during the treatment period.
(§4) On 29th day, blood was collected from retro-orbital route for biochemical analysis. IL-2, IL-6, IL-10, assay was done by using standard ELISA assay kit method. The Tfh,/iTreg assay was done by using flow cytometry method.

IL-6 = assay: Serum IL-6 by ELISA after 28 days oral treatment with treadmill exercise training
Method: as §1, §2, §3, §4

IL-10 = assay: Serum IL-10 by ELISA after 28 days oral treatment with treadmill exercise training
Method: as §1, §2, §3, §4

C-reactive protein (CRP) = assay: Blood C-reactive protein after 28 days oral treatment with treadmill exercise training
Method: as §1, §2, §3, §4

Th1 = Th1 cells by flow cytometry after 28 days oral treatment
Method: as §1
as §2, with “bw/day). […]” for “bw/day).”

Th2 = Th2 cells by flow cytometry after 28 days oral treatment
Method: as §1
as §2, with “bw/day). […]” for “bw/day).”

Th17 = Th17 cells by flow cytometry after 28 days oral treatment
Method: as §1
as §2, with “bw/day). […]” for “bw/day).”

Tfh = Tfh cells by flow cytometry after 28 days oral treatment
Method: as §1
as §2, with “bw/day). […]” for “bw/day).”

iTreg = iTreg cells by flow cytometry after 28 days oral treatment
Method: as §1
as §2, with “bw/day). […]” for “bw/day).”

[1] = mice, 28 days oral, versus control

Cn1c(=O)[nH]c2ncn(C)c2c1=O [Paraxanthine, 1,7-dimethyl-3H-purine-2,6-dione]
Delta IL-2 (IL-2; change versus control, day 29): +23.1%
effect on IL-2 (in words) (IL-2; [1]): increased
IL-2 (ng/L) Adaptive Immunity (IL-2; mice, oral once daily 28 days (paraxanthine 20.5 mg/kg bw/day), blood on day 29, control 37.29 ± 1.88): 45.91 ± 2.68 ng/L
Delta IL-6 (IL-6; change versus control, day 29): −7.7%
effect on pro-inflammatory cytokine IL-6 (in words) (IL-6; [1]): reduced
IL-6 (pg/ml) Pro-inflammatory (IL-6; mice, oral once daily 28 days (paraxanthine 20.5 mg/kg bw/day), blood on day 29, control 369.04 ± 13): 340.6 ± 13.6 pg/mL
Delta IL-10 (IL-10; change versus control, day 29): +8.3%
effect on anti-inflammatory cytokine IL-10 (in words) (IL-10; [1]): increased
IL-10 (pg/ml) Anti-inflammatory (IL-10; mice, oral once daily 28 days (paraxanthine 20.5 mg/kg bw/day), blood on day 29, control 527.86 ± 9.22): 571.71 ± 16.43 pg/mL
Delta CRP (C-reactive protein (CRP); change versus control, day 29): −18.3%
effect on C-reactive protein (CRP) (in words) (C-reactive protein (CRP); [1]): reduced
CRP (mg/L) Inflammation (C-reactive protein (CRP); mice, oral once daily 28 days (paraxanthine 20.5 mg/kg bw/day), blood on day 29, control 0.77 ± 0.09): 0.64 ± 0.07 mg/L
Delta Th1 (Th1; change versus control, day 29): −29.8%
Th1 (%) (Th1; mice, oral 20.5 mg/kg bw/day 28 days, blood on day 29, control 93.54 ± 2.82): 65.68 ± 3.98 %
Delta Th2 (Th2; change versus control, day 29): +368.0%
Th2 (%) (Th2; mice, oral 20.5 mg/kg bw/day 28 days, blood on day 29, control 11.46 ± 3.16): 53.63 ± 3.85 %
Delta Th17 (Th17; change versus control, day 29): +758.4%
Th17 (%) (Th17; mice, oral 20.5 mg/kg bw/day 28 days, blood on day 29, control 3.65 ± 0.85): 31.33 ± 1.31 %
Delta Tfh (Tfh; change versus control, day 29): +602.8%
Tfh (%) (Tfh; mice, oral 20.5 mg/kg bw/day 28 days, blood on day 29, control 7.82 ± 1.04): 54.96 ± 4.44 %
Delta iTreg (iTreg; change versus control, day 29): −56.5%
iTreg (%) (iTreg; mice, oral 20.5 mg/kg bw/day 28 days, blood on day 29, control 54.47 ± 4.2): 23.68 ± 2.62 %
